Data from patent publication US5698564A, “Diphenyl disulfide compounds” (Nisshin Flour Milling Co., Ltd., priority 1994, dated 1997).

Tests used:
[1] = tested on: production of IL-1β (THP-1 cells); test: inhibition of the production of IL-1β in THP-1 cells stimulated with PMA and polyinosic acid (enzyme immunoassay); format: cell-based; conditions: Homo sapiens, PMA 2 μg/ml and polyinosic acid, 24 hours, read-out: IC50 (concentration to inhibit 50% the IL-1β production)
Description: Compounds 1-3, the present diphenyl disulfide compounds obtained in Examples 1 and 2, were evaluated for the activity to inhibit the production of IL-1β, in accordance with the following method.
(§1) The THP-1 cells derived from human peripheral blood (ATCC TIB202) were suspended in RPMI 1640 medium (available from Bio-Whittaker Co., Ltd.) containing 10% (v/v) of fetal bovine serum, 2 mM of glutamine, 50 μM of 2-mercaptoethanol, 60 μg/ml of penicillin and 100 μg/ml of streptomycin.
The suspension of the THP-1 cell was subcultured at 37° C. under the atmosphere of […] and 5% carbon dioxide. A portion of the subcultured suspension was centrifuged at 1200 rpm at room temperature for 3 minutes to recover the subcultured THP-1 cells.
(§2) The resulting THP-1 cells were resuspended in RPMI 1640 medium containing 2% (v/v) of fetal bovine serum, 2 mM of glutamine, 50 μM of 2-mercaptoethanol, 60 μg/ml of penicillin and 100 μg/ml of streptomycin so as to provide a final THP-1 cell concentration of 3×10^6 cells/ml.
The resuspension of the cell was dispensed in 0.5 ml portions to wells of a 24-well plate for cell culture. Then, each solution of the present Compounds 1-3 dissolved in DMSO at the respective specified concentrations was added in 2.5 μl portions to each well. The plate was incubated at 37° C. under the atmosphere of 95% […] and 5% carbon dioxide for one hour. Then, 12-o-tetradecanoylphorbol-13-acetate (PMA) and polyinosic acid were added to each well so as to provide final concentrations of 2 μg/ml and […] respectively. The plate was incubated at 37° C. under the atmosphere of 95% […] and 5% carbon dioxide for 24 hours. After incubation, a supernatant was recovered from each well by means of Pipetteman available from Gilson Co., Ltd. Then, an amount of the IL-1β in the supernatant was assayed by means of the enzyme immunoassay kit available from Cayman Chemical Co., Ltd. […]

[2] = tested on: release of TNFα (THP-1 cells); test: inhibition of the release of TNFα in THP-1 cells stimulated with PMA and polyinosic acid (ELISA); format: cell-based; conditions: Homo sapiens, PMA 2 μg/ml and polyinosic acid 200 μg/ml, 24 hours, read-out: IC50 (concentration to inhibit 50% the TNFα release)
Description: Compound 1, the present diphenyl disulfide compound obtained in Example 1, was evaluated for the activity to inhibit the release of TNFα, in accordance with the following method.
as §1
The suspension of THP-1 cell was subcultured at 37° C. under the atmosphere of 95% […] and 5% carbon dioxide. A portion of the subcultured suspension was centrifuged at 1200 rpm at room temperature for 3 minutes to recover the subcultured THP-1 cells.
as §2
The resuspension of the cell was dispensed in 0.5 ml portions to wells of a 24-well plate for cell culture, and incubated at 37° C. for one hour. Each solution of the present Compound 1 dissolved in DMSO at the respective specified concentrations was added in 2.5 μl portions to each well. The plate was incubated at 37° C. under the atmosphere of 95% […] and 5% carbon dioxide for one hour. […]

| Structure (SMILES) | IC50 [1] [µM] | IC50 [2] [µM] |
| --- | --- | --- |
| Nc1ccccc1SSc1ccccc1Nc1ncccn1 [Compound 1] | 3.8 | 19 |
| c1cnc(Nc2ccccc2SSc2ccccc2Nc2ncccn2)nc1 [Compound 2] | 34 | – |
| O=[N+]([O-])c1ccc(SSc2ccccc2-c2nc3ccccc3[nH]2)c([N+](=O)[O-])c1 [Compound 3] | 34 | – |
